Reference: US4471131A, “Novel silyl esters of N-phosphonomethylglycine” (Monsanto Company, priority 1983, dated 1984)

Columns and labels:
Test in all cases: post-emergence herbicidal activity, greenhouse
Type in all cases: in vivo
Barnyardgrass = system: Barnyardgrass
Summary of the method: (§1)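 Foliar spray, chamber, atomizer; plants 2–3 weeks old in topsoil pans; emulsifier ~0.4% by weight; rates as listed. Rating: injury relative to controls, ~2 and ~4 WAT.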

Sugar Beet = details: Table III, 2 WAT
Summary of the method: as §1

Common Lambsquarters = system: Common Lambsquarters
Summary of the method: as §1

Velvetleaf = system: Velvetleaf
Summary of the method: as §1

Hemp Sesbania = details: Table III, 2 WAT
Summary of the method: as §1

Panicum Spp = details: Table III, 2 WAT
Summary of the method: as §1

Canada Thistle = details: Table II, formulated immediately prior to treatment
Summary of the method: as §1

Johnsongrass = details: Table II, formulated immediately prior to treatment
Summary of the method: as §1

Yellow Nutsedge = details: Table II, formulated immediately prior to treatment
Summary of the method: as §1

Wild Buckwheat = details: Table III, 2 WAT
Summary of the method: as §1

Downy Brome = system: Downy Brome
Summary of the method: as §1

Soybean = details: Table III, 2 WAT
Summary of the method: as §1

Quackgrass = details: Table II, formulated immediately prior to treatment
Summary of the method: as §1

Large Crabgrass = details: Table III, 2 WAT
Summary of the method: as §1

Morningglory = system: Morningglory
Summary of the method: as §1

Pennsylvania Smartweed = system: Pennsylvania Smartweed
Summary of the method: as §1

Cocklebur = system: Cocklebur
Summary of the method: as §1

Rice = details: Table III, 2 WAT
Summary of the method: as §1

[1] = Table II, 2 WAT, 5.6 kg/h, formulated immediately prior to treatment
[2] = Table II, 2 WAT, 11.2 kg/h, formulated immediately prior to treatment
[3] = Table II, 4 WAT, 5.6 kg/h, formulated immediately prior to treatment
[4] = Table II, 4 WAT, 11.2 kg/h, formulated immediately prior to treatment

CC(C)OC(=O)CNCP(=O)(O)O[Si](c1ccccc1)(c1ccccc1)C(C)(C)C [Ex. 2, Glycine, N((([(1,1-Dimethylethyl)Diphenylsilyl]oxy)-Hydroxyphosphinyl)-, methyl)-, 1-Methylethyl Ester]
0 (0-24% inhibition): Plant Response Index (M) (Sugar Beet; 1.1 kg/h) | Plant Response Index (C) (Velvetleaf; Table III, 2 WAT, 1.1 kg/h) | Plant Response Index (R) (Hemp Sesbania; 1.1 kg/h) | Plant Response Index (S) (Panicum Spp; 1.1 kg/h) | Plant Response Index (Q) (Wild Buckwheat; 1.1 kg/h) | Plant Response Index (J) (Downy Brome; Table III, 2 WAT, 1.1 kg/h) | Plant Response Index (L) (Soybean; 1.1 kg/h) | Plant Response Index (D) (Morningglory; Table III, 2 WAT, 1.1 kg/h) | Plant Response Index (B) (Cocklebur; Table III, 2 WAT, 1.1 kg/h) | Plant Response Index (O) (Rice; 1.1 kg/h)
3 (75-99% inhibition): Plant Response Index (K) (Barnyardgrass; [1]) | Plant Response Index (K) (Barnyardgrass; [2]) | Plant Response Index (K) (Barnyardgrass; [3]) | Plant Response Index (K) (Barnyardgrass; [4]) | Plant Response Index (K) (Barnyardgrass; Table III, 2 WAT, 5.6 kg/h) | Plant Response Index (E) (Common Lambsquarters; [1]) | Plant Response Index (E) (Common Lambsquarters; [2]) | Plant Response Index (E) (Common Lambsquarters; [4]) | Plant Response Index (E) (Common Lambsquarters; Table III, 2 WAT, 1.1 kg/h) | Plant Response Index (E) (Common Lambsquarters; Table III, 2 WAT, 5.6 kg/h) | Plant Response Index (C) (Velvetleaf; [2]) | Plant Response Index (C) (Velvetleaf; [4]) | Plant Response Index (C) (Velvetleaf; Table III, 2 WAT, 5.6 kg/h) | Plant Response Index (R) (Hemp Sesbania; 5.6 kg/h) | Plant Response Index (S) (Panicum Spp; 5.6 kg/h) | Plant Response Index (A) (Canada Thistle; 2 WAT, 5.6 kg/h) | Plant Response Index (A) (Canada Thistle; 4 WAT, 5.6 kg/h) | Plant Response Index (I) (Johnsongrass; 2 WAT, 5.6 kg/h) | Plant Response Index (I) (Johnsongrass; 2 WAT, 11.2 kg/h) | Plant Response Index (I) (Johnsongrass; 4 WAT, 5.6 kg/h) | Plant Response Index (I) (Johnsongrass; 4 WAT, 11.2 kg/h) | Plant Response Index (G) (Yellow Nutsedge; 4 WAT, 5.6 kg/h) | Plant Response Index (Q) (Wild Buckwheat; 5.6 kg/h) | Plant Response Index (J) (Downy Brome; [2]) | Plant Response Index (J) (Downy Brome; [4]) | Plant Response Index (J) (Downy Brome; Table III, 2 WAT, 5.6 kg/h) | Plant Response Index (H) (Quackgrass; 2 WAT, 5.6 kg/h) | Plant Response Index (H) (Quackgrass; 2 WAT, 11.2 kg/h) | Plant Response Index (H) (Quackgrass; 4 WAT, 5.6 kg/h) | Plant Response Index (T) (Large Crabgrass; 5.6 kg/h) | Plant Response Index (D) (Morningglory; [2]) | Plant Response Index (D) (Morningglory; [4]) | Plant Response Index (D) (Morningglory; Table III, 2 WAT, 5.6 kg/h) | Plant Response Index (F) (Pennsylvania Smartweed; [1]) | Plant Response Index (F) (Pennsylvania Smartweed; Table III, 2 WAT, 1.1 kg/h) | Plant Response Index (F) (Pennsylvania Smartweed; Table III, 2 WAT, 5.6 kg/h) | Plant Response Index (B) (Cocklebur; [2]) | Plant Response Index (B) (Cocklebur; [4]) | Plant Response Index (B) (Cocklebur; Table III, 2 WAT, 5.6 kg/h) | Plant Response Index (O) (Rice; 5.6 kg/h)
4 (100% inhibition): Plant Response Index (H) (Quackgrass; 4 WAT, 11.2 kg/h) | Plant Response Index (F) (Pennsylvania Smartweed; [2]) | Plant Response Index (F) (Pennsylvania Smartweed; [3]) | Plant Response Index (F) (Pennsylvania Smartweed; [4])
1 (25-49% inhibition): Plant Response Index (K) (Barnyardgrass; Table III, 2 WAT, 1.1 kg/h) | Plant Response Index (A) (Canada Thistle; 2 WAT, 11.2 kg/h) | Plant Response Index (A) (Canada Thistle; 4 WAT, 11.2 kg/h)
2 (50-74% inhibition): Plant Response Index (M) (Sugar Beet; 5.6 kg/h) | Plant Response Index (E) (Common Lambsquarters; [3]) | Plant Response Index (C) (Velvetleaf; [1]) | Plant Response Index (C) (Velvetleaf; [3]) | Plant Response Index (G) (Yellow Nutsedge; 2 WAT, 5.6 kg/h) | Plant Response Index (G) (Yellow Nutsedge; 2 WAT, 11.2 kg/h) | Plant Response Index (G) (Yellow Nutsedge; 4 WAT, 11.2 kg/h) | Plant Response Index (J) (Downy Brome; [1]) | Plant Response Index (J) (Downy Brome; [3]) | Plant Response Index (L) (Soybean; 5.6 kg/h) | Plant Response Index (T) (Large Crabgrass; 1.1 kg/h) | Plant Response Index (D) (Morningglory; [1]) | Plant Response Index (D) (Morningglory; [3]) | Plant Response Index (B) (Cocklebur; [1]) | Plant Response Index (B) (Cocklebur; [3])
